Where two headings read alike, the source gives them in different places.
Test system: human P-glycoprotein HEK cells (HEK-P-gp)
Assay: H3K27me3 immunocytochemistry assay in P-gp expressing HEK293T cells, with or without elacridar
Format: cell-based
Protocol: A plasmid encoding the human ABCB1 gene under the control of a CMV promoter was purchased from Origene (Cat #RC216080). The HEK293T cells were purchased from ATCC (Cat #CRL-3216) and were cultured for expansion in the recommended conditions. The HEK293T cells were transfected with 2 ug of the pCMV-ABCB1 plasmid using Lipofectamine 3000 following recommendations from the manufacturer (ThermoFisher Scientific, Cat #L3000008). After 24 h, cells were dissociated, and 5000 cells were seeded on a 10 cm tissue culture dish. On the next day, fresh media containing 5 nM Vinblastine (Sigma, Cat #V1377) was added, and media containing compound was replenished every 72 h. After surviving cells reached confluency, cells were passaged, and lines were maintained in the presence of 2.5 nM Vinblastine until further characterization.
P-gp expressing HEK293T, HUDEP2, and Human Mobilized Peripheral Blood Primary CD34+ cells were cultured for use in an H3K27me3 immunocytochemistry assay. HUDEP2 and Human Mobilized Peripheral Blood Primary CD34+ cells were cultured for use in an HbF immunocytochemistry assay. P-gp expressing HEK293T cells were maintained and passaged every 3-4 days by plating 300,000 viable cells in a T-25 culture flask containing 6 mLs of 293 Passaging Media comprised of DMEM (ThermoFisher #10566016), 10% fetal bovine serum (ThermoFisher #A3160502), 1% penicillin-streptomycin (ThermoFisher #15140122), and 2.5 nM Vinblastine (Sigma #V1377). To evaluate the inhibitory effect of the compounds of the present disclosure and their brain penetrant properties via P-gp mediated efflux, the H3K27me3 immunocytochemistry assay was conducted in the presence or absence of 250 nM of the P-gp inhibitor, elacridar. Poor brain penetrant compounds were expected to show higher potencies in the presence of Elacridar. However, brain penetrant compounds would show similar potencies irrespective of whether Elacridar is present or not. In these experiments plates without elacridar were seeded with P-gp expressing HEK293T cells at 1000 viable cells per well in a poly-d-lysine coated 384-well plate (Corning Cat #356697) in 45 μL of 293 Assay Media comprised of DMEM (ThermoFisher #10566016), 10% fetal bovine serum (ThermoFisher #A3160502), 1% penicillin-streptomycin (ThermoFisher #15140122). A replicate set of plates were seeded under the same conditions with 45 μL of 293 Assay Media supplemented with 250 nM of Elacridar to inhibit P-gp activity. Compounds were serially diluted at 10× concentration in 293 Media, and 5 μL transferred to their respective wells on both sets of plates for a total volume of 50 μL per well. The compound treated HEK293T cells were allowed to incubate for 4 days at 37° C., 85% relative humidity, and 5% CO2 before proceeding to ICC Fix and Stain protocol.
The Fix and Stain Protocol was the same for HEK293T, HUDEP2, and Primary CD34+ cell assays except the specific primary and secondary antibodies used for detection. Following 4 days of compound treatment, the respective plates were washed once with 25 μL of PBS (ThermoFisher #10010023) and fixed with 25 μL of 4% paraformaldehyde (ThermoFisher #28908) for 10 minutes at room temperature. The plates were then washed three times with 25 μL of PBS. Subsequent to that, the cells were permeabilized and blocked for 1 hour at room temperature in 25 μL of Perm/Block buffer comprised of IX PBS, 1% bovine serum albumin (ThermoFisher #A3294), 10% fetal bovine serum (ThermoFisher #A3160502), 0.3M glycine (Sigma #G7126), and 0.1% tween-20 (Sigma #P7949). This was followed by additional washing (three times) of the plates with 25 μL of 0.1% tween in PBS.
For the H3K27me3 assay, the cells were incubated overnight at 4° C. with 25 μL of H3K27me3 Primary Antibody (Cell Signaling #9733) diluted 1:200 in 0.1% tween-20 in PBS. […]

[1] = Homo sapiens, HEK293, 96 h, without elacridar, 4 days compound treatment, read-out: IC50, inhibitory activity on human P-glycoprotein HEK cells (HEK-P-gp)
[2] = Homo sapiens, HEK293, with 250 nM elacridar, 4 days compound treatment, read-out: IC50, inhibitory activity on human P-glycoprotein HEK cells (HEK-P-gp) pretreated with elacridar

| Compound | IC50 [nM] | IC50 [1] [nM] | IC50 [2] [nM] |
| --- | --- | --- | --- |
| Cn1cc(Cc2cc3c(n4cnnc24)NCc2c(F)cccc2COC3)cn1 [Compound 183, 12-fluoro-4-((1-methyl-1H-pyrazol-4-yl)methyl)-6,8,13,14-tetrahydro-[1,2,4]triazolo[4′,3′:1,6]pyrido[3,2-c]benzo[g][1,5]oxazonine] |  | > 500 | > 500 |
| COC(=O)N1CCC(c2cc3c(n4cnnc24)NCc2c(F)cccc2COC3)CC1 [Compound 181, methyl 4-(12-fluoro-6,8,13,14-tetrahydro-[1,2,4]triazolo[4′,3′:1,6]pyrido[3,2-c]benzo[g][1,5]oxazonin-4-yl)piperidine-1-carboxylate] |  | > 500 | > 500 |
| COc1cc(C)c(-c2cc3c(n4cnnc24)NCc2c(F)ccc4c2[C@@H](CO4)CO3)cn1 [Example 68, (S)-12-fluoro-4-(6-methoxy-4-methylpyridin-3-yl)-7a,8,13,14-tetrahydro-7H-[1,2,4]triazolo[4′,3′:1,6]pyrido[3,2-b]benzofuro[4,3-fg][1,4]oxazonine] | 50 to 100 |  |  |
| Fc1ccc2c3c1CNc1c(cc(-c4ccnn4CC(F)(F)F)c4nncn14)OC[C@@H]3CO2 [Example 72, (S)-12-fluoro-4-(1-(2,2,2-trifluoroethyl)-1H-pyrazol-5-yl)-7a,8,13,14-tetrahydro-7H-[1,2,4]triazolo[4′,3′:1,6]pyrido[3,2-b]benzofuro[4,3-fg][1,4]oxazonine] | 50 to 100 |  |  |
| (S)-1-(4-(12-fluoro-7a,8,13,14-tetrahydro-7H-[1,2,4]triazolo[4′,3′:1,6]pyrido[3,2-b]benzofuro[4,3-fg][1,4]oxazonin-4-yl)piperidin-1-yl)ethan-1-one [Compound 9] | > 500 |  |  |
| Cc1ncc(-c2cc3c(n4cnnc24)NCc2c(F)cccc2COC3)c(C)n1 [Compound 182, 4-(2,4-dimethylpyrimidin-5-yl)-12-fluoro-6,8,13,14-tetrahydro-[1,2,4]triazolo[4′,3′:1,6]pyrido[3,2-c]benzo[g][1,5]oxazonine] |  | > 500 | > 500 |
| Cn1cc(-c2cc3c(n4cnnc24)NCc2c(F)ccc4c2[C@@H](CO4)CO3)ccc1=O [Example 69, (S)-5-(12-fluoro-7a,8,13,14-tetrahydro-7H-[1,2,4]triazolo[4′,3′:1,6]pyrido[3,2-b]benzofuro[4,3-fg][1,4]oxazonin-4-yl)-1-methylpyridin-2(1H)-one] | < 25 |  |  |
| COc1nccc(C)c1-c1cc2c(n3cnnc13)NCc1c(F)ccc3c1[C@@H](CO3)CO2 [Example 71, (S)-12-fluoro-4-(2-methoxy-4-methylpyridin-3-yl)-7a,8,13,14-tetrahydro-7H-[1,2,4]triazolo[4′,3′:1,6]pyrido[3,2-b]benzofuro[4,3-fg][1,4]oxazonine] | < 25 |  |  |
| (S)-12-fluoro-4-(2-methylpyridin-3-yl)-7a,8,13,14-tetrahydro-7H-[1,2,4]triazolo[4′,3′:1,6]pyrido[3,2-b]benzofuro[4,3-fg][1,4]oxazonine [Compound 8] | < 25 |  |  |
| Cc1nc(-c2cc3c(n4cnnc24)NCc2c(F)ccc4c2[C@@H](CO4)CO3)ccc1C(F)F [Example 77, (S)-4-(5-(difluoromethyl)-6-methylpyridin-2-yl)-12-fluoro-7a,8,13,14-tetrahydro-7H-[1,2,4]triazolo[4′,3′:1,6]pyrido[3,2-b]benzofuro[4,3-fg][1,4]oxazonine] | 100 to 500 |  |  |

Now from value to compound, other results behind:

| IC50 [nM] | Compound | IC50 [1] [nM] | IC50 [2] [nM] |
| --- | --- | --- | --- |
| < 25 | CN(C)C(=O)c1ccc(-c2cc3c(n4cnnc24)NCc2c(F)ccc4c2[C@@H](CO4)CO3)cn1 [Example 152, (S)-5-(12-fluoro-7a,8,13,14-tetrahydro-7H-[1,2,4]triazolo[4′,3′:1,6]pyrido[3,2-b]benzofuro[4,3-fg][1,4]oxazonin-4-yl)-N,N-dimethylpicolinamide] |  |  |
| 25 to 50 | Cn1cnc(-c2cc3c(n4cnnc24)NCc2c(F)ccc4c2[C@@H](CO4)CO3)c1 [Example 94, (S)-12-fluoro-4-(1-methyl-1H-imidazol-4-yl)-7a,8,13,14-tetrahydro-7H-[1,2,4]triazolo[4′,3′:1,6]pyrido[3,2-b]benzofuro[4,3-fg][1,4]oxazonine] |  |  |
| 100 to 500 | CN(C)c1cc(-c2cc3c(n4cnnc24)NCc2c(F)ccc4c2[C@@H](CO4)CO3)n(C)n1 [Example 91, (S)-5-(12-fluoro-7a,8,13,14-tetrahydro-7H-[1,2,4]triazolo[4′,3′:1,6]pyrido[3,2-b]benzofuro[4,3-fg][1,4]oxazonin-4-yl)-N,N,1-trimethyl-1H-pyrazol-3-amine] |  |  |
| 50 to 100 | Cc1cc(C)c(-c2cc3c(n4cnnc24)NCc2c(F)ccc4c2[C@@H](CO4)CO3)cn1 [Example 96, (S)-4-(4,6-dimethylpyridin-3-yl)-12-fluoro-7a,8,13,14-tetrahydro-7H-[1,2,4]triazolo[4′,3′:1,6]pyrido[3,2-b]benzofuro[4,3-fg][1,4]oxazonine] |  |  |
| 25 to 50 | Cc1nccc(-c2cc3c(n4cnnc24)NCc2c(F)ccc4c2[C@@H](CO4)CO3)c1F [Example 86, (S)-12-fluoro-4-(3-fluoro-2-methylpyridin-4-yl)-7a,8,13,14-tetrahydro-7H-[1,2,4]triazolo[4′,3′:1,6]pyrido[3,2-b]benzofuro[4,3-fg][1,4]oxazonine] |  |  |

Reference: patent publication US20220160686A1, “MACROCYCLIC AZOLOPYRIDINE DERIVATIVES AS EED AND PRC2 MODULATORS” (Fulcrum Therapeutics, Inc., priority 2019, published 2022)
